Reference: patent US20250243171A1, “QUINAZOLINE COMPOUNDS FOR TREATMENT OF DISEASE” (Arthrosi Therapeutics, Inc., priority 2021, published 2025)

Experiments:
Experiment in all cases: EC50 assay: Ba/F3 stable cell proliferation (CCK-8, 72 h)
Type in all cases: cell-based
Ba/F3 stable cells [1] = molecular target: T1, Ba/F3 stable cells (Homo sapiens, UniProt P00533, DUP768-770, cells depend on it); conditions: Ba/F3-EGFR D770-N771insSVD cells
T1 construct: EC50 Ba/F3-EGFR D770-N771insSVD; other: Ba/F3-EGFR D770-N771insSVD cells, 72 h, CCK-8
Description: (§1) 4,000 Ba/F3 stable cells/90 μL/well were plated onto 96-well cell culture plate (Grenier, Cat.No. 655180) and incubated at 37° C. with a humidified atmosphere of 5% CO2 for 2 h. Then the cells were treated with 10 μL compounds at serial titration. The final DMSO concentration is 0.1%. The cells treated with 0.1% DMSO (Vetec, Cat.No.V900090) as a positive control (Max), and medium with 0.1% DMSO was as a negative control (Min). Incubated the cells at 37° C. for 72 h. 10 μL the cell proliferation reagent CCK-8 (Dojindo, Cat.No. CK04 1000T) was added into each well and incubated the plate at 37° C. for 4 hours, the GD value was measured by SPECTRAmax plus (Molecular Devices) at 450 nm. Data processing with Graphpad 7.0.

Ba/F3 stable cells [2] = molecular target: T2, Ba/F3 stable cells (Homo sapiens, UniProt P00533, INS763FQEA, cells depend on it); conditions: Ba/F3-EGFR A763-Y764insFQEA cells
T2 construct: EC50 Ba/F3-EGFR A763-Y764insFQEA; other: Ba/F3-EGFR A763-Y764insFQEA cells, 72 h, CCK-8
T2 sequence (P00533 with tags, fused parts or gaps INS763FQEA): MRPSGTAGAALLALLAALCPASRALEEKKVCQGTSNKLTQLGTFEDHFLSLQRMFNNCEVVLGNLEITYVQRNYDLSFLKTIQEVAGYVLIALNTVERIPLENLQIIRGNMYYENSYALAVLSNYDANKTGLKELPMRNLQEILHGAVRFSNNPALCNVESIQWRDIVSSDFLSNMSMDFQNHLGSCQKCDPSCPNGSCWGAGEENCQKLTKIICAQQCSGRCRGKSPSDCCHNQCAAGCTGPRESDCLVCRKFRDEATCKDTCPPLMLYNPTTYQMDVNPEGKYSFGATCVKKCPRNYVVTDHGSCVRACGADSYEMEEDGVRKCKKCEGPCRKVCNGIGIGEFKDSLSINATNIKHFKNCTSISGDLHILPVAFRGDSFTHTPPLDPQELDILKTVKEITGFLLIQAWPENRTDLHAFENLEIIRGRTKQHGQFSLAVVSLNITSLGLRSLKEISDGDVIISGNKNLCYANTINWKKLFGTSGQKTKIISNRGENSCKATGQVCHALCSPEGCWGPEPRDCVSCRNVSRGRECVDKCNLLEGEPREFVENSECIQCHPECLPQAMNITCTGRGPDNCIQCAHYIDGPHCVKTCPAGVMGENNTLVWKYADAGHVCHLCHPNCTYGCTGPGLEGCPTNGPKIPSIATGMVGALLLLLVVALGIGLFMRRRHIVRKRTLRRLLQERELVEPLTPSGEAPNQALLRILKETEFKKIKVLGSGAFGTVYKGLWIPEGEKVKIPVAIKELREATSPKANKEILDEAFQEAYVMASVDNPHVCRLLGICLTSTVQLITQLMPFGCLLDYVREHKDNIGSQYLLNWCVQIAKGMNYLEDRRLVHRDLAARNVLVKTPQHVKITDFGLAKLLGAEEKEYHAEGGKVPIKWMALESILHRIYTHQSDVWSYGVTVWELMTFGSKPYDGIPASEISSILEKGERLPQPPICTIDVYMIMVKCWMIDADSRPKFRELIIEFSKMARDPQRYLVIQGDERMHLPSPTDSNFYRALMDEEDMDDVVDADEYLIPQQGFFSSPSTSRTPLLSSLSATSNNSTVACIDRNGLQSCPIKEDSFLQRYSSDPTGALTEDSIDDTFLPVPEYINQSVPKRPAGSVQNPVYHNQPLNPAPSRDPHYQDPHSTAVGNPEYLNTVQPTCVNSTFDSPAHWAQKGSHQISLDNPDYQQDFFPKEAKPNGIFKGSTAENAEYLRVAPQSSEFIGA
Description: as §1

Ba/F3 stable cells [3] = molecular target: T3, Ba/F3 stable cells (Homo sapiens, UniProt P00533, DUP767-769, cells depend on it); conditions: Ba/F3-EGFR V769-D770insASV cells
T3 construct: EC50 Ba/F3-EGFR V769-D770insASV; other: Ba/F3-EGFR V769-D770insASV cells, 72 h, CCK-8
T3 sequence (P00533 with tags, fused parts or gaps DUP767-769): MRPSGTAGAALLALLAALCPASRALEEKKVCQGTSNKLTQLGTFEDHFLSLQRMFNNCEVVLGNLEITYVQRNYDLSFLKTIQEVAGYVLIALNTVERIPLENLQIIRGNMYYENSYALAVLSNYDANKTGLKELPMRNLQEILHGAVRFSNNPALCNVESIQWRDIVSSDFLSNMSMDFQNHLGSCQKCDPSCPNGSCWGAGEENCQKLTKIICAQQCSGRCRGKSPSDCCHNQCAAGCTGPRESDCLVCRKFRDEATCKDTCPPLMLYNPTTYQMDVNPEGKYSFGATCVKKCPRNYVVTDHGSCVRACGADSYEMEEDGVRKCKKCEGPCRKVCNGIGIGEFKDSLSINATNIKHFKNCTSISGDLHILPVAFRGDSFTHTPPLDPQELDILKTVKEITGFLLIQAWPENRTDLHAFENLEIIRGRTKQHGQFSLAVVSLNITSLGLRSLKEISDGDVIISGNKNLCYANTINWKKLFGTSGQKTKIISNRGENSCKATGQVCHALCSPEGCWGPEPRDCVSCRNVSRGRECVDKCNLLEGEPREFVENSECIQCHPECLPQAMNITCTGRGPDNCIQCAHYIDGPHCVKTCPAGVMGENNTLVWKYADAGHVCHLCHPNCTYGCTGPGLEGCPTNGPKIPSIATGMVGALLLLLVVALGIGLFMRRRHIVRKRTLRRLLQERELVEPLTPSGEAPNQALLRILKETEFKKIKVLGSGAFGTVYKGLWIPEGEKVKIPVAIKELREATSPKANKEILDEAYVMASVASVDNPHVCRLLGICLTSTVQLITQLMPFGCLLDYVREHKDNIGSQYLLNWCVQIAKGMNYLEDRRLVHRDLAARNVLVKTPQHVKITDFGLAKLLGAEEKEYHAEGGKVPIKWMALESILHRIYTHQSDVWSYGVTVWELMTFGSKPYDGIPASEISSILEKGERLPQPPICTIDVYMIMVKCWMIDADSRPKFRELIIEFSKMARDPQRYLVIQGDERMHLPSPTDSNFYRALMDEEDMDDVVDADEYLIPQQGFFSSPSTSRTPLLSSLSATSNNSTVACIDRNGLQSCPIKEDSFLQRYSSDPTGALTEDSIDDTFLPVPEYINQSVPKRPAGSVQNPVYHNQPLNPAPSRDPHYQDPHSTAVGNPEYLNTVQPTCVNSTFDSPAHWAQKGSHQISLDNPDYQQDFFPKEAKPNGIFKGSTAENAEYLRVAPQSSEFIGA
Description: as §1

Ba/F3 stable cells [4] = molecular target: T4, Ba/F3 stable cells (Homo sapiens, UniProt P04626, DUP772-775, cells depend on it); conditions: Ba/F3-HER2 A775-G776insYVMA cells
T4 construct: EC50 Ba/F3-HER2 A775-G776insYVMA; other: Ba/F3-HER2 A775-G776insYVMA cells, 72 h, CCK-8
T4 sequence (P04626 with tags, fused parts or gaps DUP772-775): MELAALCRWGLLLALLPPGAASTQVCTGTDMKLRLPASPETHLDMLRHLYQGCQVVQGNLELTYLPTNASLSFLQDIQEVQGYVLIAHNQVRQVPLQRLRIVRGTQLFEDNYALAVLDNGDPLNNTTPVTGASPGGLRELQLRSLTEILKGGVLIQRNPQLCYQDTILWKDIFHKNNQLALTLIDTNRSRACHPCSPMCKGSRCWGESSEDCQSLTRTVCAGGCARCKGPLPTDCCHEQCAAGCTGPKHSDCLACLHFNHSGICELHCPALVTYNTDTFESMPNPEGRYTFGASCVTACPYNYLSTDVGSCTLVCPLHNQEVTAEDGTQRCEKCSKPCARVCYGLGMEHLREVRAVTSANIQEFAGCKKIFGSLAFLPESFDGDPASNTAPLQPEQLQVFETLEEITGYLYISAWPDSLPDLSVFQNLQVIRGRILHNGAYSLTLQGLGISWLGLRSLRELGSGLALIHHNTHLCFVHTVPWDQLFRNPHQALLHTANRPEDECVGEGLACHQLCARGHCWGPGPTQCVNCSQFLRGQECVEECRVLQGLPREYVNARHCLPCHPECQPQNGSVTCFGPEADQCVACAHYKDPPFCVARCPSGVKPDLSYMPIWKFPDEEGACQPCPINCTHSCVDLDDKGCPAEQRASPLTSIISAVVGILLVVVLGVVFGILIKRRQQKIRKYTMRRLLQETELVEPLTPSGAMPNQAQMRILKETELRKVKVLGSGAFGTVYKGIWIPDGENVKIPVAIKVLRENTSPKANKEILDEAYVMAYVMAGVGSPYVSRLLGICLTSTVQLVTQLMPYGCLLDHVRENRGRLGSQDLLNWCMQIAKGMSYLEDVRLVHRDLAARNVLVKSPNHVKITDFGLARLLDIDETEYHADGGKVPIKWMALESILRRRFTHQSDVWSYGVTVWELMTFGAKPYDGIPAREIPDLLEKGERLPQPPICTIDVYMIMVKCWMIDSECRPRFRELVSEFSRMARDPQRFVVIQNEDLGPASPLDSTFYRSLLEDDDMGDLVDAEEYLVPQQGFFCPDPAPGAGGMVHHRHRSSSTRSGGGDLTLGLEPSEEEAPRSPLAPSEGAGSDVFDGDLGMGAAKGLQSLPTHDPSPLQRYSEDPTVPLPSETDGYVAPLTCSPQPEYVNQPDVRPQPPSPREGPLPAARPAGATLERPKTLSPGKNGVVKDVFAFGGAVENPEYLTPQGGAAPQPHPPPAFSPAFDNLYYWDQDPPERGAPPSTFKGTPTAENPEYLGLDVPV
Description: as §1

Ba/F3 stable cells [5] = molecular target: T5, Ba/F3 stable cells (Homo sapiens, UniProt P00533, T790M/L858R, cells depend on it); conditions: Ba/F3-EGFR L858R-T790M cells
T5 construct: EC50 Ba/F3-EGFR L858R-T790M; other: Ba/F3-EGFR L858R-T790M cells, 72 h, CCK-8
Description: as §1

Ba/F3 stable cells [6] = molecular target: T6, Ba/F3 stable cells (Homo sapiens, UniProt P00533, DUP771-773, cells depend on it); conditions: Ba/F3-EGFR H773-V774insNPH cells
T6 construct: EC50 Ba/F3-EGFR H773-V774insNPH; other: Ba/F3-EGFR H773-V774insNPH cells, 72 h, CCK-8
T6 sequence (P00533 with tags, fused parts or gaps DUP771-773): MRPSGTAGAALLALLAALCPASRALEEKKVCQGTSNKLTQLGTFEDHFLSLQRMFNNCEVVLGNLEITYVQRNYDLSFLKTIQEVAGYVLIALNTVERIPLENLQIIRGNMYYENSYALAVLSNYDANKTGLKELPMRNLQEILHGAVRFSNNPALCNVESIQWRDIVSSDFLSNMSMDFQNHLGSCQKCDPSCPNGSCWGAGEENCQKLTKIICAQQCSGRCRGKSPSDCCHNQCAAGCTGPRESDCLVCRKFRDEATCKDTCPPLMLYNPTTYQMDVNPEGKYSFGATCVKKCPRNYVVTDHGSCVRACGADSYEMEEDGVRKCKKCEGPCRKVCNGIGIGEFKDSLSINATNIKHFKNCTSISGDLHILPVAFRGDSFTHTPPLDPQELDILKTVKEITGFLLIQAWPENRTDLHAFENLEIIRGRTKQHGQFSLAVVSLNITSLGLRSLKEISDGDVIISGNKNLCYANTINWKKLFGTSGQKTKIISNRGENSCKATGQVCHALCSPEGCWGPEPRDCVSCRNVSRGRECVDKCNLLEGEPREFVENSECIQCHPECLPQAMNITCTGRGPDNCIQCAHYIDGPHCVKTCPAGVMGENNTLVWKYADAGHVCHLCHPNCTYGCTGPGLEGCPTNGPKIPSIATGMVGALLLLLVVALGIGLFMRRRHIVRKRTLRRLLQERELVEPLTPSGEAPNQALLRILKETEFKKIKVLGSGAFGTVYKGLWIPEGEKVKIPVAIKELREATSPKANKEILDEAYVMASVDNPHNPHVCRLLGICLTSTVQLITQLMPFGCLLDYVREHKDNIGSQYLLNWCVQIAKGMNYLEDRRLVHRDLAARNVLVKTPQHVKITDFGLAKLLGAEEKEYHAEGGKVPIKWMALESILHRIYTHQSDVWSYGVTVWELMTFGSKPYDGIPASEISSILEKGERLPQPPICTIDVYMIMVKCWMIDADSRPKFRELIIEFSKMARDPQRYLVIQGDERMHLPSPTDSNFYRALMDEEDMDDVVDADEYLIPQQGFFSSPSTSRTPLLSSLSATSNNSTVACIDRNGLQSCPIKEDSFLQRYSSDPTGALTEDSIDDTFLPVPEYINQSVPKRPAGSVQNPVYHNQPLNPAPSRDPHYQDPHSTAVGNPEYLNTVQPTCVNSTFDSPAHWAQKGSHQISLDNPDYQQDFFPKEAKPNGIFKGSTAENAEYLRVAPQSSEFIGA
Description: as §1

Row | SMILES | EC50 (Ba/F3 stable cells [1]) [nM] | EC50 (Ba/F3 stable cells [2]) [nM] | EC50 (Ba/F3 stable cells [3]) [nM] | EC50 (Ba/F3 stable cells [4]) [nM] | EC50 (Ba/F3 stable cells [5]) [nM] | EC50 (Ba/F3 stable cells [6]) [nM]
1 | C=CC(=O)N1CCC(Oc2c(OC)cc3ncnc4c3c2N(C)C(=O)N4c2ccc(Cl)c(Cl)c2F)CC1 [Compound 200, 9-((1-acryloylpiperidin-4-yl)oxy)-3-(3,4-dichloro-2-fluorophenyl)-8-methoxy-1-methyl-1H-pyrimido[4,5,6-de]quinazolin-2(3H)-one] | > 1000 | ≤ 200 | 200 to 1000 | > 1000 | > 1000 | 200 to 1000
2 | C=CC(=O)N1CCC(Oc2cc3c(Nc4cccc5c4CCC5)ncnc3cc2OC)CC1 [Compound 156, 1-(4-((4-((2,3-dihydro-1H-inden-4-yl)amino)-7-methoxyquinazolin-6-yl)oxy)piperidin-1-yl)prop-2-en-1-one] | 200 to 1000 | ≤ 200 | ≤ 200 | ≤ 200 | 200 to 1000 | ≤ 200
3 | C=CC(=O)N1CCC(Oc2cc3c(Nc4ccc5ccccc5n4)ncnc3cc2OC)CC1 [Compound 158, 1-(4-((7-methoxy-4-(quinolin-2-ylamino)quinazolin-6-yl)oxy)piperidin-1-yl)prop-2-en-1-one] | > 1000 | ≤ 200 | 200 to 1000 | > 1000 | ≤ 200 | 200 to 1000
4 | C=CC(=O)N1CCC(Oc2cc3c(Nc4ccc5c(c4)CCC5)ncnc3cc2OC)CC1 [Compound 153, 1-(4-((4-((2,3-dihydro-1H-inden-5-yl)amino)-7-methoxyquinazolin-6-yl)oxy)piperidin-1-yl)prop-2-en-1-one] | 200 to 1000 | ≤ 200 | ≤ 200 | 200 to 1000 | 200 to 1000 | 200 to 1000
5 | C#CC(=O)N1C2CCC1CC(Oc1cc3c(Nc4cccc5c4CCC5)ncnc3cc1OC)C2 (stereo not drawn) [Compound 56, 1-(3-((4-((2,3-dihydro-1H-inden-4-yl)amino)-7-methoxyquinazolin-6-yl)oxy)-8-azabicyclo[3.2.1]octan-8-yl)prop-2-yn-1-one] | 200 to 1000 | ≤ 200 | ≤ 200 | 200 to 1000 | 200 to 1000 | ≤ 200
6 | C=CC(=O)N1CCC(Oc2cc3c(Nc4ccc5c(c4)OCO5)ncnc3cc2OC)CC1 [Compound 152, 1-(4-((4-(benzo[d][1,3]dioxol-5-ylamino)-7-methoxyquinazolin-6-yl)oxy)piperidin-1-yl)prop-2-en-1-one] | 200 to 1000 | ≤ 200 | 200 to 1000 | ≤ 200 | 200 to 1000 | 200 to 1000
7 | C=CC(=O)N1CC(c2cc3c(Nc4ccc(Cl)c(Cl)c4F)ncnc3cc2OCCN2CCOCC2)C1 [Compound 28, 1-(3-(4-((3,4-dichloro-2-fluorophenyl)amino)-7-(2-morpholinoethoxy)quinazolin-6-yl)azetidin-1-yl)prop-2-en-1-one] | 200 to 1000 | ≤ 200 | ≤ 200 | 200 to 1000 | 200 to 1000 | ≤ 200
8 | C=CC(=O)N1CC(c2cc3c(Nc4ccc(F)c(Cl)c4F)ncnc3cc2O[C@H]2CCOC2)C1 [Compound 33, (S)-1-(3-(4-((3-chloro-2,4-difluorophenyl)amino)-7-((tetrahydrofuran-3-yl)oxy)quinazolin-6-yl)azetidin-1-yl)prop-2-en-1-one] | ≤ 200 | ≤ 200 | ≤ 200 | ≤ 200 | ≤ 200 | ≤ 200
9 | C=CS(=O)(=O)N1CCC=C(c2ccc3ncnc(Nc4ccc(Cl)c(Cl)c4F)c3c2)C1 [Compound 190, N-(3,4-dichloro-2-fluorophenyl)-6-(1-(vinylsulfonyl)-1,2,5,6-tetrahydropyridin-3-yl)quinazolin-4-amine] | ≤ 200 | ≤ 200 | ≤ 200 | 200 to 1000 | ≤ 200 | ≤ 200
10 | C=CC(=O)NC1CC(Oc2cc3c(Nc4cccc5c4CCC5)ncnc3cc2OC)C1 (stereo not drawn) [Compound 88, N-(3-((4-((2,3-dihydro-1H-inden-4-yl)amino)-7-methoxyquinazolin-6-yl)oxy)cyclobutyl)acrylamide] | > 1000 | 200 to 1000 | > 1000 | > 1000 | > 1000 | > 1000
11 | C=CC(=O)N1CC(c2cc3c(NCc4ccc(F)cc4)ncnc3cc2OC)C1 [Compound 13, 1-(3-(4-((4-fluorobenzyl)amino)-7-methoxyquinazolin-6-yl)azetidin-1-yl)prop-2-en-1-one] | > 1000 | ≤ 200 | 200 to 1000 | > 1000 | > 1000 | 200 to 1000
12 | C=CC(=O)NC1CC(Oc2cc3c(Nc4cccc5ccccc45)ncnc3cc2OC)C1 (stereo not drawn) [Compound 81, N-(3-((7-methoxy-4-(naphthalen-1-ylamino)quinazolin-6-yl)oxy)cyclobutyl)acrylamide] | ≤ 200 | ≤ 200 | ≤ 200 | 200 to 1000 | 200 to 1000 | 200 to 1000
13 | C=CC(=O)N1CC(c2cc3c(Nc4ccc(Cl)c(Cl)c4F)ncnc3cc2OC(F)F)C1 [Compound 23, 1-(3-(4-((3,4-dichloro-2-fluorophenyl)amino)-7-(difluoromethoxy)quinazolin-6-yl)azetidin-1-yl)prop-2-en-1-one] | ≤ 200 | ≤ 200 | ≤ 200 | 200 to 1000 | ≤ 200 | ≤ 200
14 | C=CS(=O)(=O)N1CCC(Oc2cc3c(Nc4ccc(Cl)c(Cl)c4F)ncnc3cc2OC)CC1 [Compound 192, N-(3,4-dichloro-2-fluorophenyl)-7-methoxy-6-((1-(vinylsulfonyl)piperidin-4-yl)oxy)quinazolin-4-amine] | > 1000 | ≤ 200 | ≤ 200 | 200 to 1000 | ≤ 200 | ≤ 200
15 | C=CC(=O)NC1CC(Oc2cc3c(Nc4ccc(F)c(Cl)c4)ncnc3cc2OC)C1 (stereo not drawn) [Compound 85, N-(3-((4-((3-chloro-4-fluorophenyl)amino)-7-methoxyquinazolin-6-yl)oxy)cyclobutyl)acrylamide] | > 1000 | ≤ 200 | 200 to 1000 | > 1000 | > 1000 | > 1000
16 | C=CC(=O)N1CCC=C(c2ccc3ncnc(Nc4ccc(Cl)c(Cl)c4F)c3c2)C1 [Compound 187, 1-(5-(4-((3,4-dichloro-2-fluorophenyl)amino)quinazolin-6-yl)-3,6-dihydropyridin-1(2H)-yl)prop-2-en-1-one] | 200 to 1000 | ≤ 200 | ≤ 200 | 200 to 1000 | 200 to 1000 | 200 to 1000
17 | C=CC(=O)N1C2CCCC1CC(Oc1cc3c(Nc4ccc(Cl)c(Cl)c4F)ncnc3cc1OC)C2 (stereo not drawn) [Compound 176, 1-(3-((4-((3,4-dichloro-2-fluorophenyl)amino)-7-methoxyquinazolin-6-yl)oxy)-9-azabicyclo[3.3.1]nonan-9-yl)prop-2-en-1-one] | ≤ 200 | ≤ 200 | ≤ 200 | ≤ 200 | ≤ 200 | ≤ 200
18 | C#CC(=O)N[C@H]1C[C@@H](Oc2cc3c(Nc4cccc5c4CCC5)ncnc3cc2OC)C1 [Compound 45, N-((1s,3s)-3-((4-((2,3-dihydro-1H-inden-4-yl)amino)-7-methoxyquinazolin-6-yl)oxy)cyclobutyl)propiolamide] | > 1000 | ≤ 200 | > 1000 | > 1000 | > 1000 | > 1000
19 | C=CC(=O)N1CCC(Oc2cc3c(Nc4ccc5[nH]ncc5c4)ncnc3cc2OC)CC1 [Compound 150, 1-(4-((4-((1H-indazol-5-yl)amino)-7-methoxyquinazolin-6-yl)oxy)piperidin-1-yl)prop-2-en-1-one] | > 1000 | ≤ 200 | 200 to 1000 | > 1000 | > 1000 | 200 to 1000
